# Experimental data as given in ChEMBL document CHEMBL4340576, “Synthesis of oxadiazole-coupled-thiadiazole derivatives as a potent β-glucuronidase inhibitors and their molecular docking study” (Bioorg Med Chem, 2019).
# Molecular target: T1, Beta-glucuronidase (Homo sapiens, UniProt P08236)
# T1 sequence (P08236 whole entry): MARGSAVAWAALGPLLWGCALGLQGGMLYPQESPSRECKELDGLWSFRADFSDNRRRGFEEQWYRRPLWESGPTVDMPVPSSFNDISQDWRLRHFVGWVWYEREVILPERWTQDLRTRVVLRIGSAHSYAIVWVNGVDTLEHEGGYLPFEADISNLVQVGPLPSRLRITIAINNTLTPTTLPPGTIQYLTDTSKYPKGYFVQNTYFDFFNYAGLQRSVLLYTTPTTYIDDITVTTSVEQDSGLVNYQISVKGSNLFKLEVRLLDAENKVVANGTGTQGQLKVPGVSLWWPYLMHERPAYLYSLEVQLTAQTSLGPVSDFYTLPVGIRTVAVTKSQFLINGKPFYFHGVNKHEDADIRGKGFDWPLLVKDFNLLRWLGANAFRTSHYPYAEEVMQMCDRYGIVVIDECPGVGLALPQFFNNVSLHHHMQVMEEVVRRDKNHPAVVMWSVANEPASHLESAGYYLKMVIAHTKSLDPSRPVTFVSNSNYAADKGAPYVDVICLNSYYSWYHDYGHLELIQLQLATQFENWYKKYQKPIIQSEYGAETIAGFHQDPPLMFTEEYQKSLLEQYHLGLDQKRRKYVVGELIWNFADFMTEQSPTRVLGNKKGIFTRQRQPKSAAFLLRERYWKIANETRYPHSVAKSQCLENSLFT
# Description: Inhibition of human beta-glucuronidase pre-incubated for 30 mins before p-nitrophenyl-beta-D-glucuronide substrate addition by spectrophotometry
row,IC50,SMILES
1,Not Active,COc1cc(O)ccc1-c1nnc(-c2ccc(-c3nnc(-c4cccc(C)c4)s3)cc2)o1
2,Not Active,COc1cc(O)ccc1-c1nnc(-c2ccc(-c3nnc(-c4cccc([N+](=O)[O-])c4)s3)cc2)o1
3,Not Active,COc1cc(O)ccc1-c1nnc(-c2ccc(-c3nnc(-c4cccnc4)s3)cc2)o1
4,Not Active,COc1cc(O)ccc1-c1nnc(-c2ccc(-c3nnc(-c4ccncc4)s3)cc2)o1
